Assay results as given in patent EP2066677B1, “PYRIDOOXAZEPINE PROGESTERON RECEPTOR MODULATORS” (N.V. Organon, priority 2006, dated 2008).

Test system: mature cyclic rats
Assay: Ovulation inhibition in rat (in vivo progestagenic activity)
Settings: 96 h, minimal active dose: level at which average number of ova is reduced by 60% relative to placebo, oral administration for 1 complete cycle (4 days), read-out: MAD
Method: Ovulation inhibition after oral administration of the compounds of the invention was studied in mature cyclic rats. Animals were treated with test compound (oral administration) for 1 complete cycle (4 days, from oestrus to pro-oestrus) and the number of ova in the oviduct was microscopically assessed at autopsy in the morning of the next (expected) oestrus. The average number of ova per rat was calculated; the minimal active dose (MAD) is defined as the level at which the average number of ova is reduced by 60% relative to placebo-treated animals.

Compound	minimal effective dose [mg/kg]
N#Cc1cc2c(cc1F)Oc1ccccc1[C@@H]1[C@@H](NC(=O)C(F)(F)F)CCCN21 (single isomer, unassigned) [Example 2, (-)-(cis)-N-(7-cyano-8-fluoro-1,3,4,14b-tetrahydro-2H-dibenzo[b,f]pyrido[1,2-d] [1,4]oxazepin-1-yl)-2,2,2-trifluoroacetamide]	0.014
N#Cc1c(F)cc2c(c1Cl)N1CCC[C@@H](NC(=O)C(F)(F)F)[C@@H]1c1ccc(F)cc1O2 [Example 5, (-)-(cis)-N-(6-chloro-7-cyano-8,12-difluoro-1,3,4,14b-tetrahydro-2H-dibenzo[b,f]pyrido[1,2-d][1,4]oxazepin-1-yl)-2,2,2-trifluoroacetamide]	≤ 0.025
N#Cc1c(F)cc2c(c1Cl)N1CCC[C@@H](NC(=O)C(F)(F)F)[C@@H]1c1ccccc1O2 [Example 3, (-)-(cis)-N-[6-chloro-7-cyano-8-fluoro-1,3,4,14b-tetrahydro-2H-dibenzo[b,f]pyrido[1,2-d][1,4]oxazepin-1-yl]-2,2,2-trifluoroacetamide]	0.08
CC(=O)N[C@H]1CCCN2c3c(cc(F)c(C#N)c3Cl)Oc3cccc(F)c3[C@H]12 (single isomer, unassigned) [Example 6, (-)-(cis)-N-(6-chloro-7-cyano-8,14-difluoro-1,3,4,14b-tetrahydro-2H-dibenzo[b,f]pyrido[1,2-d][1,4]oxazepin-1-yl)acetamide]	< 0.02
N#Cc1cc2c(cc1F)Oc1cccc(F)c1[C@H]1[C@H](NC(=O)C(F)(F)F)CCCN21 [Example 8, (-)-(cis)-N-(7-cyano-8,14-difluoro-1,3,4,14b-tetrahydro-2H-dibenzo[b,f]pyrido [1,2-d][1,4]oxazepin-1-yl)-2,2,2-trifluoroacetamide]	0.01
C=Cc1cccc2c1N1CCC[C@H](NC(=O)C(F)(F)F)[C@H]1c1ccccc1O2 (single isomer, unassigned) [eutomer of example 54 of WO03/084963, reference compound]	> 4
N#Cc1c(F)cc2c(c1Cl)N1CCC[C@@H](NC(=O)C(F)(F)F)[C@@H]1c1c(F)cccc1O2 [Example 9, (-)-(cis)-N-(6-chloro-7-cyano-8,14-difluoro-1,3,4,14b-tetrahydro-2H-dibenzo [b,f]pyrido[1,2-d][1,4]oxazepin-1-yl)-2,2,2-trifluoroacetamide]	< 0.02
N#Cc1c(F)cc2c(c1Cl)N1CCC[C@H](NC(=O)C(F)(F)F)[C@H]1c1cccc(F)c1O2 (single isomer, unassigned) [Example 7, (-)-(cis)-N-(6-chIoro-7-cyano-8,11-difluoro-1,3,4,14b-tetrahydro-2H-dibenzo[b,f]pyrido[1,2-d][1,4]oxazepin-1-yl)-2,2,2-trifluoroacetamide]	0.025
N#Cc1c(F)cc2c(c1C#N)N1CCC[C@@H](NC(=O)C(F)(F)F)[C@@H]1c1ccccc1O2 [Example 4, (-)-(cis)-N-(6,7-dicyano-8-fluoro-1,3,4,14b-tetrahydro-2H-dibenzo[b,f]pyrido [1,2-d][1,4]oxazepin-1-yl)-2,2,2-trifluoroacetamide]	0.02
